Laboratory results as given in patent publication US11420970B1 (NOVARTIS AG, priority 2019, dated 2022).
Where two headings read alike, the source gives them in different places.

Tests used:
NSD2 [1-1365] = NSD2 [1-1365] (Homo sapiens (Human), UniProt O96028); assay: LC-MS/MS-based NSD2 enzymatic assay (SAH production); type: biochemical; conditions: read-out: NSD2 IC50
How it was run: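 Full-length NSD2 [1-1365] (8 nM final) with 1 μM SAM and 400 nM mouse-liver nucleosome in Tris pH 8.0 buffer; inhibitor preincubated 20 min with enzyme/SAM before nucleosome addition. Reaction 90 min at room temperature, TFA-quenched; SAH quantified by LC-MS/MS against d4-SAH internal standard and SAH standard curve.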

[1] = tested on: cellular H3K36me2 level in multiple myeloma cell line KMS11 (t(4;14)+); assay: H3K36me2 cellular ELISA assay in KMS11-Par line; type: cell-based; conditions: Homo sapiens, KMS-11, ELISA, read-out: H3K36me2 ELISA in KMS11-Par
Description: H3K36Me2 Cellular ELISA Assay in KMS11-Par Line
An ELISA (enzyme-linked immunosorbent assay) based assay was used to test the ability of candidate compound to reduce cellular H3K36me2 level in multiple myeloma cell line KMS11 (t(4;14)+). KMS11 (Horizon Discovery Ltd.) cells are maintained in RPM11640 media with 12.5% FBS and 50 U/ml Penicillin-Streptomycin. For assay compound treatment, single cell suspension was prepared in Opti-MEM supplemented with B-27 and N2 supplement (Invitrogen 11058-021, 17504-044, 17502-048) for ELISA and in maintenance media for cellTiter Glo (CTG) viability assay. One day prior to cell treatment, 1,250 KMS11 cells were seeded into 384-well Greiner CellStar TC plate (Greiner #781086) at the final volume of 30 μL/well.
Cells were treated with tested compounds at the desired concentration for 72 hours. Crude histone lysate was extracted by 0.4M HCl following neutralization by 0.5M Sodium phosphate, dibasic (Na2HPO4), pH ˜12.5. Equal amount of histone lysate was loaded to Corning 384-well high biding plate (Corning #3577, black) for H3K36m2 and to Thermo 384-well high binding Nunc plate (Thermo #460372, white) for total H3.
Histone bound plates were washed and blocked with 5% BSA. […] The abundance of H3K36me2 and total H3 was measured by Chemiluminesce on a plate reader. Cell viability was monitored on a parallel seeded plate with CellTiter-Glo reagent (Promega #G7573).

[2] = NSD2 biochemical activity, class symbols
[3] = KMS11-Par line (t(4;14)+), 72 hours treatment

Chain of NSD2 [1-1365] (O96028 whole entry): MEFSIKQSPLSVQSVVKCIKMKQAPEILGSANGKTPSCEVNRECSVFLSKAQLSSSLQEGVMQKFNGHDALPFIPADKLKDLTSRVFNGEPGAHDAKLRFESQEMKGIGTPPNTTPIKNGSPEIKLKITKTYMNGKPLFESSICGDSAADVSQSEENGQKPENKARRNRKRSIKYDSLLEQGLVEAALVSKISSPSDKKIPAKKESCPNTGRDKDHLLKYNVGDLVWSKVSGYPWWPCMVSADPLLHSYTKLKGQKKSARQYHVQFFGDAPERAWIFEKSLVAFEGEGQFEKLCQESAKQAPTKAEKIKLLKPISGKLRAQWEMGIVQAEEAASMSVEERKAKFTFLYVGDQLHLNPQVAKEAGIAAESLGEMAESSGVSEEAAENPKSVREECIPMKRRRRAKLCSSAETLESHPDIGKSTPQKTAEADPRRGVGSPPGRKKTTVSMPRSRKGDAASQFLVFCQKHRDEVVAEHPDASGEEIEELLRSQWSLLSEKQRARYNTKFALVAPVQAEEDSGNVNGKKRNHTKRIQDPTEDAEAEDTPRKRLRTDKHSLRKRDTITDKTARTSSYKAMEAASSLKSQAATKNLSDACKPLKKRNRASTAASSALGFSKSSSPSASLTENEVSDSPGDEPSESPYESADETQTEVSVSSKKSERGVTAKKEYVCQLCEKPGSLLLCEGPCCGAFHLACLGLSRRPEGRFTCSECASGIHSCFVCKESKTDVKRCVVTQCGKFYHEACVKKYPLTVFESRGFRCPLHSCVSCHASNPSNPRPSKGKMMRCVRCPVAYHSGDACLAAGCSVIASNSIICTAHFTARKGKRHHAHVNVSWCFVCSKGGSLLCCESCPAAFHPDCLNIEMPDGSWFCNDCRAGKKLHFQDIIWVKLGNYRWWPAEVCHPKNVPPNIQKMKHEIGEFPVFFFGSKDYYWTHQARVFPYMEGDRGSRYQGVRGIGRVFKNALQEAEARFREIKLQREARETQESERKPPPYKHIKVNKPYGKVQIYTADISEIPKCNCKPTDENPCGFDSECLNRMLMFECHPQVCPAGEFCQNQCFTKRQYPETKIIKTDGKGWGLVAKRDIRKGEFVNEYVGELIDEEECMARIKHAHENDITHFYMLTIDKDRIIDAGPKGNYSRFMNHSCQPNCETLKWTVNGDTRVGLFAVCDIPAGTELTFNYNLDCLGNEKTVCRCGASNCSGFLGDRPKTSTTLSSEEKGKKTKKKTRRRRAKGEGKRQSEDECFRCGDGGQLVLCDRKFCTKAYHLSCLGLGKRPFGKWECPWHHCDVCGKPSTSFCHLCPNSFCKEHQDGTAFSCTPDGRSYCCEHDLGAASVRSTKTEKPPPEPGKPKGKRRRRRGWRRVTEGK

Compound | IC50 (NSD2 [1-1365]) [nM] | IC50 ([1]; KMS11-Par line, 72 hours) [µM] | IC50 (NSD2 [1-1365]; [2]) [nM] | IC50 [1, 3] [µM]
CCn1ccc(C2(N)CCCN(c3cnc(-c4ccc(F)cc4)cc3Cn3cnc4c(N)nccc43)C2)n1 (stereo not shown) [Example 277, 1-((5-(3-amino-3-(1-ethyl-1H-pyrazo1-3-yl)piperidin-1-yl)-2-(4-fluorophenyl)pyridin-4-yl)methyl)-1H-imidazo[4,5-c]pyridin-4-amine] | 10 to 1000 | 2.2 |  | 
COc1ccc(-c2cc(Cn3cnc4c(N)nccc43)c(N3CCC[C@](N)(Cc4ccccn4)C3)cn2)cc1F [Example 50, (S)-1-((5-(3-amino-3-(pyridin-2-ylmethyl)piperidin-1-yl)-2-(3-fluoro-4-methoxyphenyl)pyridin-4-yl)methyl)-1H-imidazo[4,5-c]pyridin-4-amine] |  |  | 1 to 10 | 0.895
Nc1nccc2c1ncn2Cc1cc(-c2ccc(F)c(F)c2)ncc1N1CCC[C@](N)(c2cccc(C(F)F)n2)C1 [Example 260, (R)-1-((5-(3-amino-3-(6-(difluoromethyl)pyridin-2-yl)piperidin-1-yl)-2-(3,4-difluorophenyl)pyridin-4-yl)methyl)-1H-imidazo[4,5-c]pyridin-4-amine] | 10 to 1000 | 1.52 |  | 
Cc1cc2c(cnn2C)cc1-c1cc(Cn2cnc3c(N)ncnc32)c(N2CCC[C@](N)([C@@H](O)C(F)F)C2)cn1 [Example 136, (R)-1-((R)-3-amino-1-(4-((6-amino-9H-purin-9-yl)methyl)-6-(1,6-dimethyl-1H-indazol-5-yl)pyridin-3-yl)piperidin-3-yl)-2,2-difluoroethan-1-ol] |  |  | 10 to 1000 | 8.8
Nc1ncnc2c1ncn2Cc1cc(-c2ccc(NC(=O)CCBr)cc2)ncc1N1CCCC(N)(CC(F)F)C1 (stereo not shown) [Example 64, N-(4-(5-(3-amino-3-(2,2-difluoroethyl)piperidin-1-yl)-4-((6-amino-9H-purin-9-yl)methyl)pyridin-2-yl)phenyl)-3-bromopropanamide] |  |  | 10 to 1000 | 7
Nc1nccc2c1ncn2Cc1cc(-c2ccc(F)c(F)c2)ncc1N1CCC[C@](N)(Cc2ccccn2)C1 [Example 51, (S)-1-((5-(3-amino-3-(pyridin-2-ylmethyl)piperidin-1-yl)-2-(3,4-difluorophenyl)pyridin-4-yl)methyl)-1H-imidazo[4,5-c]pyridin-4-amine] |  |  | 1 to 10 | 1.53
Nc1nccc2c1ncn2Cc1cc(-c2ccc(F)c(F)c2)ncc1N1CCC[C@](N)(Cc2ncco2)C1 [Example 63, (S)-1-((5-(3-amino-3-(oxazol-2-ylmethyl)piperidin-1-yl)-2-(3,4-difluorophenyl)pyridin-4-yl)methyl)-1H-imidazo[4,5-c]pyridin-4-amine] |  |  | 10 to 1000 | 7.91
Cn1ccc(C[C@@]2(N)CCCN(c3cnc(-c4ccc(F)cc4)cc3Cn3cnc4c(N)nccc43)C2)n1 [Example 49, (S)-1-((5-(3-amino-3-((1-methyl-1H-pyrazol-3-yl)methyl)piperidin-1-yl)-2-(4-fluorophenyl)pyridin-4-yl)methyl)-1H-imidazo[4,5-c]pyridin-4-amine] |  |  | 1 to 10 | 12.7
CCc1cccc([C@@]2(N)CCCN(c3cnc(-c4ccc(F)cc4)cc3Cn3cnc4c(N)ncnc43)C2)n1 [Example 202, (R)-9-((5-(3-amino-3-(6-ethylpyridin-2-yl)piperidin-1-yl)-2-(4-fluorophenyl)pyridin-4-yl)methyl)-9H-purin-6-amine] | 1 to 10 | 0.264 |  | 

Other lines, results leading:

IC50 (NSD2 [1-1365]) [nM] | IC50 ([1]; KMS11-Par line, 72 hours) [µM] | IC50 (NSD2 [1-1365]; [2]) [nM] | IC50 [1, 3] [µM] | Compound
1 to 10 | 0.407 |  |  | Cc1cccc(C2(N)CCCN(c3cnc(-c4ccc(F)c(F)c4)cc3Cn3cnc4c(N)ncnc43)C2)n1 (stereo not shown) [Example 177, 9-((5-(3-amino-3-(6-methylpyridin-2-yl)piperidin-1-yl)-2-(3,4-difluorophenyl)pyridin-4-yl)methyl)-9H-purin-6-amine]
 |  | 10 to 1000 | 4.22 | Nc1ncnc2c1ncn2Cc1cc(-c2ccc(F)c(F)c2)ncc1N1CCC[C@](N)(Cc2cnccn2)C1 [Example 74, (S)-9-((5-(3-amino-3-(pyrazin-2-ylmethyl)piperidin-1-yl)-2-(3,4-difluorophenyl)pyridin-4-yl)methyl)-9H-purin-6-amine]
10 to 1000 | 16.7 |  |  | Nc1ncnc2c1ncn2Cc1cc(-c2ccc(F)c(F)c2)ncc1N1CCC[C@](N)(c2ccnc(Cl)c2)C1 [Example 246, (S)-9-((5-(3-amino-3-(2-chloropyridin-4-yl)piperidin-1-yl)-2-(3,4-difluorophenyl)pyridin-4-yl)methyl)-9H-purin-6-amine]
10 to 1000 | 1.33 |  |  | Nc1nccc2c1ncn2Cc1cc(-c2ccc(F)c(F)c2)ncc1N1CCCC(N)(c2cccc(F)n2)C1 (stereo not shown) [Example 262, 1-((5-(3-amino-3-(6-fluoropyridin-2-yl)piperidin-1-yl)-2-(3,4-difluorophenyl)pyridin-4-yl)methyl)-1H-imidazo[4,5-c]pyridin-4-amine]
10 to 1000 | 15.3 |  |  | Cn1cc(C2(N)CCCN(c3cnc(-c4ccc(F)c(F)c4)cc3Cn3cnc4c(N)nccc43)C2)cn1 (stereo not shown) [Example 270, 1-((5-(3-amino-3-(1-methyl-1H-pyrazol-4-yl)piperidin-1-yl)-2-(3,4-difluorophenyl)pyridin-4-yl)methyl)-1H-imidazo[4,5-c]pyridin-4-amine]
10 to 1000 | 33.3 |  |  | Cc1cc([C@@]2(N)CCCN(c3cnc(-c4ccc(F)c(F)c4)cc3Cn3cnc4c(N)ncnc43)C2)ccn1 [Example 247, (S)-9-((5-(3-amino-3-(2-methylpyridin-4-yl)piperidin-1-yl)-2-(3,4-difluorophenyl)pyridin-4-yl)methyl)-9H-purin-6-amine]
10 to 1000 | 3.54 |  |  | Nc1ncnc2c1ncn2Cc1cc(-c2ccc(F)c(F)c2)ncc1N1CCCC(N)(c2cnccn2)C1 (stereo not shown) [Example 259, 9-((5-(3-amino-3-(pyrazin-2-yl)piperidin-1-yl)-2-(3,4-difluorophenyl)pyridin-4-yl)methyl)-9H-purin-6-amine]
10 to 1000 | 2.15 |  |  | Nc1ncnc2c1ncn2Cc1cc(-c2ccc(F)c(F)c2)ncc1N1CCC[C@](N)(c2ccncc2)C1 [Example 245, (S)-9-((5-(3-amino-3-(pyridin-4-yl)piperidin-1-yl)-2-(3,4-difluorophenyl)pyridin-4-yl)methyl)-9H-purin-6-amine]
10 to 1000 | 9.44 |  |  | Nc1ncnc2c1ncn2Cc1cc(-c2ccc(F)c(F)c2)ncc1N1CCCC(N)(C=C(F)F)C1 (stereo not shown) [Example 294, 9-((5-(3-amino-3-(2,2-difluorovinyl)piperidin-1-yl)-2-(3,4-difluorophenyl)pyridin-4-yl)methyl)-9H-purin-6-amine]
1 to 10 | 0.475 |  |  | Nc1ncnc2c1ncn2Cc1cc(-c2ccc(F)c(F)c2)ncc1N1CCCC(N)(c2ccn(C3CC3)n2)C1 (stereo not shown) [Example 278, 9-((5-(3-amino-3-(1-cyclopropyl-1H-pyrazol-3-yl)piperidin-1-yl)-2-(3,4-difluorophenyl)pyridin-4-yl)methyl)-9H-purin-6-amine]
10 to 1000 | 2.88 |  |  | Nc1ncnc2c1ncn2Cc1cc(-c2ccc(F)c(F)c2)ncc1N1CCC[C@](N)(c2ccncc2F)C1 [Example 248, (S)-9-((5-(3-amino-3-(3-fluoropyridin-4-yl)piperidin-1-yl)-2-(3,4-difluorophenyl)pyridin-4-yl)methyl)-9H-purin-6-amine]
